Test results reported in US11912994B2 (The General Hospital Corporation, priority 2015, dated 2024).

How the values were obtained:
Assay type in all cases: cell-based, mouse
[1] = test system: GFP transgene on the inactive X (Xi-TgGFP fibroblasts); assay: Assay for the reactivation of Xi-TgGFP (GFP RT-qPCR); conditions: single drug 0.3 μM, shControl
Text: Xi-TgGFP (68-5-11) tail-tip fibroblasts (TTF) were initially derived from a single female pup, a daughter of a cross between aM castaneus male and aM musculus female, homozygous for an X-linked GFP transgene driven by a strong, ubiquitous promoter (58). The fibroblasts were immortalized by SV40 transformation, and clonal lines were derived from individual GFP-negative cells selected by fluorescence-activated cell sorting. In our experience, occasional clones with undetectable GFP expression nevertheless have the transgene located on the active X chromosome.
A cocktail of 3 shRNA viruses were used for infections (Table 2) followed with puromycin selection using standard methodology. In all the experiments, polyclonal knock down cells were used.
RNA was isolated by Trizol twice, with an intermittent TurboDNase treatment after the first isolation for 30 min at 37° C. One μg RNA was used for each of the RT+ and RT− reactions (Superscript III, Invitrogen) followed by the SYBR green qPCR using the primers listed in Table 3, with annealing temperature of 60° C. for 45 cycles. The relative efficiency of Xi-TgGFP reactivations was calculated by comparing to U1 snRNA as the internal control.

[2] = Drug concentration relative to IC50 / toxicity in fibroblasts; conditions: 0.3 μM
[3] = test system: Mecp2 on the Xi (Mecp2:luciferase fusion); assay: Luciferase screen in Mecp2-Luc fusion Xi cell line
Method: To determine whether an LNA targeting XIST could also be used in addition to or as an alternative to an agent described herein, experiments were performed in the following cells: immortalized monoclonal MEFs with the reporter GFP (Bird) or LUC (Bedalov) fused to Mecp2, on the Xi or Xa, immortalized human fibroblasts from a […] with Rett syndrome (Coriell) and primary mouse cortical neurons.
The LNAs were designed with the Exiqon web tool. Xist LNA for mouse ([…]; SEQ ID NO:50) targets exon 1 between rep C and rep D. The human Xist LNAs target the following sequences: A1: […]; SEQ ID NO:51; A2: […]; SEQ ID NO:52; A3: […]; SEQ ID NO:53. […] 5-azadeoxycitidine (in DMSO) was added to a final concentration of 0.5 μM (except in the titration experiment 0.1-2.5 μM).
Luciferase experiments were performed on a Microbeta2 LumiJet with a luciferase assay system (Promega). […] Afterwards, the cells were trypsinized, washed, and lysed using cell culture lysis reagent. Normalized measurements were performed in 96 well plates, during 10 seconds after a 2 second incubation period.

[4] = trial 1, 20 uM LNA, 0.5 uM aza, 3 days, 1 10^5 cells/ml, 24-well

## Nc1ncn([C@@H]2O[C@H](CO)[C@@H](O)[C@H]2O)c(=O)n1 [5′-azacytidine, 4-amino-1-beta-D-ribofuranosyl-s-triazin-2(1H)-one]
[1]
  GFP reactivation: minimally reactivated GFP
[2]
  Toxicity at the concentration used: nontoxic

## Nc1ncn([C@H]2C[C@H](O)[C@@H](CO)O2)c(=O)n1 [AzadC, 5-aza-2′-deoxycytidine]
[3]; added to Xist LNA, 0.5 μM, reporter not specified
  Reactivation together with Xist LNA: Synergistic reactivation

## COc1cc([C@@H]2c3cc4c(cc3[C@@H](O[C@@H]3O[C@@H]5CO[C@@H](C)O[C@H]5[C@H](O)[C@H]3O)[C@H]3COC(=O)[C@H]23)OCO4)cc(OC)c1O [etoposide]
[1]
  GFP reactivation: minimally reactivated GFP

## xist: Xist LNA for mouse (TCTTGGTTACTAACAG; SEQ ID NO:50), targets exon 1 between rep C and rep D (LNA-modified, pattern not given here)
[3]; [4]
  LCPS: 0
  raw CPS: 29.8
